The values below come from US8076281B2, “Use of a ghrelin agonist to improve the catabolic effects of glucocorticoid treatment” (IPSEN Pharma, S.A.S., priority 2006, dated 2011).

Experiment [1] can be described thus: Effects of pharmacological treatments on plasma hormones and glucose concentrations. The experiment is classed as in vivo, Sprague-Dawley rats. The note with it: for plasma IGF-1 concentration (in words): compared with saline; for plasma corticosterone (in words) / plasma insulin (in words): compared with saline / vehicle. Here is the method: (§1) Beginning on the 23rd day (i.e., the animals were 23 days old), 16 of the study animals were treated intraperitoneally (Ip) daily with 40 μg/kg of either saline or dexamethasone sodium phosphate (sold under the trademark Decadron® by Merck Pharmaceuticals, West Point, Pa.). Beginning on the 30th day (i.e., the animals were 30 days old), the subgroup of 16 studied animals was further divided into groups of 8 and treated subcutaneously three times daily (at approximately 9:00 am, 1:00 pm and 5:00 pm) with either 80 nmoles/kg of the preferred ghrelin analog [Aib^2, Glu^3(NH-hexyl)]hGhrelin(1-28)-NH2 (SEQ ID NO:2) (IPSEN, Milford, Mass.) dissolved in a sterile saline solution with 0.25% bovine serum albumin or vehicle (the saline-bovine serum albumin solution alone). This regimen continued for 24 days during which time the studied animals were weighed two times per week. At irregular intervals, the cumulative food intake for a 24-hour period of time was measured. Beginning on the 46th day (i.e., the animals were 46 days old), the length of the test and control animals from nose to anus was measured (hereinafter referred to as “the nose-anal length”). On the 47th day (i.e., the animals were 47 days old), all food was denied to the test subjects commencing at 8:00 am. Small samples of blood were taken via percutaneous puncture of the tail to assess blood glucose levels during the treatment period.
The test animals received two subcutaneous administrations of [Aib^2, Glu^3(NH-hexyl)]hGhrelin(1-28)-NH2 (SEQ ID NO:2) at approximately 9:00 am and 1:00 pm. The studied animals were sacrificed by rapid decapitation at approximately 2:00 pm, trunk blood collected for hormone level determinations, and the epididymal fat pads removed and weighed.
Samples of trunk blood were taken from the test subjects following decapitation. The blood samples were collected in tubes containing EDTA, separated by centrifugation, and stored at −20° C. Plasma insulin, IGF-1, and corticosterone levels were all measured using commercial RIA kits (Insulin and Corticosterone kits were both obtained from ICN-Biomedicals, Asse-Relegem, BELGIUM and the rIGF-1 test kit was obtained from Mediagnostic GMbH, Tubingen, GERMANY). Glucose concentration was determined using the Glucotrend® Soft Test System blood glucose meter (Roche Diagnostics, Barcelona, SPAIN).
Unless otherwise stated, the results reported in FIGS. 3-6 are expressed as the mean±SEM of eight replicate test subjects. Data was analyzed for statistical significance by one-way ANOVA which determines the variation (variance) within the groups and how that variation translates into variation (i.e. differences) between the groups, taking into account how many subjects there are in each group. […] The linear correlation analysis was performed either by Pearson's parametric test or by Spearman's nonparametric test. A P value below 0.05 was considered significant.

The nature of experiment [2]: Effects of pharmacological treatments on growth parameters in young rats. The experiment is classed as in vivo, Sprague-Dawley rats. Particulars: FIG. 3; for somatic growth: young male rats, compared to SAL-treated rats. Here is the method: Thirty-two prepubertal male Sprague-Dawley rats approximately 21 days old and weighing between 45 and 55 grams, were obtained from Harlan, Italy (S. Pietro al Natisone, ITALY). During the study, the animals were maintained in accordance with the guidelines of the Italian Ministry of Health for the care and use of laboratory animals (Decreto legge 116/92). The animals were randomly divided into two treatment groups and kept in a controlled environment at a constant temperature of 21-23° C. with 12:12 light/dark exposure continuous period wherein the light exposure began at approximately 8:00 am and ended at approximately 8:00 pm. The animals were provided with water and food ad libitum consisting of an approximate 3200 calories/kg daily diet of standard pellet chow provided by Piccioni, Gessate-Milano, Italy (containing at least 19% protein, 3% fat and 56% carbohydrate).
Beginning on the 23rd day (i.e., the animals were 23 days old), 16 of the study animals were treated intraperitoneally (Ip) daily with 40 μg/kg of either saline or dexamethasone sodium phosphate (sold under the trademark Decadron® by Merck Pharmaceuticals, West Point, Pa.). […] At irregular intervals, the cumulative food intake for a 24-hour period of time was measured. Beginning on the 46th day (i.e., the animals were 46 days old), the length of the test and control animals from nose to anus was measured (hereinafter referred to as “the nose-anal length”). […]
Unless otherwise stated, the results reported in FIGS. 3-6 are expressed as the mean±SEM of eight replicate test subjects. Data was analyzed for statistical significance by one-way ANOVA which determines the variation (variance) within the groups and how that variation translates into variation (i.e. differences) between the groups, taking into account how many subjects there are in each group. […]

The nature of experiment [3]: 24-hour food intake and food efficiency. The experiment is classed as in vivo, Sprague-Dawley rats. Particulars: for 24-h food intake: after 10 days of dexamethasone treatment, compared with saline-treated animals, FIG. 4A; for food efficiency: ratio body weight gain (g) / food intake (g), compared with saline treatment. Here is the method: as §1
Food efficiency was calculated as the ratio between body weight gain (in grams) and food intake (in grams) measured over the same time interval.

For experiment [4] the following is noted: in the rat; cited from earlier work.

As for “[Aib^2, Glu^3(NH-hexyl)]hGhrelin(1-28)-NH2 (GXEFLSPEHQRVQQRKESKKPPAKLQPR; Aib2, Glu3 NH-hexyl, C-terminal amide; Ghrelin analog)”, in experiment [1] (at sacrifice (day 47), mean ± SEM of eight animals), the Glucose worked out at 122 ± 3 mg/dL. Besides, in experiment [1], the “plasma IGF-1 concentration (in words)” value is “higher IGF-1 levels”, the “plasma corticosterone (in words)” value is on record as “clear-cut increase” and the “plasma insulin (in words)” value is “unchanged”. In addition, in experiment [1] (in dexamethasone-treated animals), the “suppression of the HPA axis (corticosterone) in dexamethasone-treated animals” value is “not able to overcome”. Moreover, in experiment [1] (in dexamethasone-treated subjects), the “IGF-1 suppression in dexamethasone-treated subjects” value is on record as “partially reversed”. Further, the “growth suppression induced by DEX” value in experiment [2] (concomitant treatment in DEX-treated rats) was “reversed”. In experiment [2], the somatic growth result was “significantly increased”. Further, the 24-h food intake entry in experiment [3] was “increased daily food intake”. Further, in experiment [3] (in dexamethasone-treated rats, FIG. 4B), the “decrease of food efficiency induced by dexamethasone” value is recorded as “able to reverse”. Also, the food efficiency entry in experiment [3] (FIG. 4B) is given as “increased food efficiency”.

On to GHRP-6, for which the “glucocorticoid-mediated GH-inhibition” value in experiment [4] was “completely counteract”.

On to `C[C@@H]1C[C@H]2[C@@H]3CCC4=CC(=O)C=C[C@]4(C)[C@@]3(F)[C@@H](O)C[C@]2(C)[C@@]1(O)C(=O)CO` [Dexamethasone, 9-fluoro-11β, 17, 21-trihydroxy-16a-methylpregna-1,4-diene-3,20-dione, reference compound], for which, in experiment [1], the “plasma IGF-1 concentration (in words)” value was “significantly reduced”; the “plasma corticosterone (in words)” value was “suppressed almost completely”; the “plasma insulin (in words)” value was “tended to increase plasma insulin concentration, but the effect did not reach statistical significance”. For the same compound, in experiment [2], the somatic growth result was “significantly decreased”. In addition, the 24-h food intake result in experiment [3] is “significant reduction”. For the same compound, the food efficiency result in experiment [3] (FIG. 4B) was “significantly reduced food efficiency”. The “cumulative 24-hour food intake” value in experiment [3] (up to 10 days from the beginning of the treatment) is “did not significantly affect”.
